The values that follow come from patent publication US10716769B2 (GUANGZHOU JTREAT BIOSCI. LTD., priority 2015, dated 2020).

Converted amounts (≈) assume the structure as drawn.

One series relates to Vero cells. The series is described as follows: Half toxic concentration in the anti-herpes screening. It is filed as cell-based, African green monkey. As to the method: Vero cells (kidney cells of African green monkey) are used as viral hosts to test the inhibition degree of the samples to cytopathic effects of the Vero cell caused by herpes virus type I and type II. 2. Sample treatment: the sample is dissolved in DMSO at an appropriate concentration before use, and diluted with the culture medium 3 times at a total of 8 dilutions for test. 4.

A further series has as its system HPV16/18. The series is described as follows: HPV detection via fluorescence quantitative PCR in genital warts tissue homogenate. On the set-up: species or system human papillomavirus. The conditions noted are these: for HPV16/18 virus detection, in words: 24 hours after addition into the tissue homogenate of genital warts; for HPV16/18: genital warts tissue homogenate, 37° C., 24 hours, FQ-PCR. The source says: (§1) The aforesaid compounds and/or compositions containing the same are effective in killing and inhibiting HPV type 6/11 and type 16/18, which can be used for the preparation of drugs for preventing and treating viral infection of HPV, preventing and treating genital warts, flat warts, common warts, vaginitis, cervicitis and cervical erosion, cervical cancer, esophageal cancer and other cancers caused by HPV. The present invention observes the effect of active ingredients and products by the detection of the change in the amount of the HPV virus through the real-time quantitative PCR. Such method has been applied in several publications (Youling C A I, et al., Chinese STD/AIDS, 2002, 8: 2,108; Yuansheng W U, Ruijiang F A N, et al., Practical Application of Integrated Chinese and Western Medicine in Clinics, 2003, 3: 2,1).
(§2) The microemulsion obtained in example 1 is used as a test sample and saline for blank control.
(§3) The standard clinical genital warts specimens from a variety of patients after being cut off are washed with saline for removing bloods, and are cut into pieces under aseptic conditions, added with saline in 3 times of their volumes to be uniformly mixed, grinded into homogenate and placed at −40° C. for use.
(§4) Each test sample drug microemulsion and the saline of 50 μl for each are respectively added with 50 μl the genital warts tissue homogenate, and incubated at 37° C. for 24 hours; tests are performed according to the operation procedure provided by the HPV6, 11 and 16, 18 type FQ-PCR diagnostic kits provided by Da'an Gene Diagnostic Center. 0.2 ml of DNA extracted by the conventional alkaline lysis method is put into the thin-walled reaction tube, and simultaneously added with primers, F-PROBE, DNTP, DNA polymerase, buffers and the like in a certain concentration; ABI PRISM™ 7700 fluorescence quantitative PCR amplifier is used to repeat 40 circulations each with 45 s at 93° C. and 120 s at 55° C. after predegeneration at 93° C. for 2 mins; the quantitative results are automatically analyzed by the computer software to calculate the quantitative results of the initial copy number. The data are shown in Table 2 (completed by Da'an Gene Clinical Test Center).

The subject of the next series is HPV 6/11 Virus. Described as above. On the set-up: species or system human papillomavirus. The following applies: for HPV 6/11 virus detection, in words: 24 hours after addition into the tissue homogenate of genital warts; for HPV 6/11 Virus: genital warts tissue homogenate, 37° C., 24 hours, FQ-PCR.
Source text: as §1, §2, §3, §4

A further series has as its target T1, HIV-1 integrase (Human immunodeficiency virus type 1 group M subtype B, UniProt P04585).
T1 construct: purified HIV-1 integrase is added to donor substrates coated 96-well plate; made in house
In words: Test of sample inhibition to HIV-1 integrase (ELISA, strand transfer). It is filed as biochemical. Here is the method: The half-inhibitory concentration IC50 for 3′ excision of the substrate and the strand transfer is in the range of 88.92-10.20 μg/ml, in which the best inhibitory activity of the compound is higher than that of the monomer compound of hydroxybenzoic acid. The mechanism of the HIV-1 integrase is a two-step reaction: 1) 3′ Processing: the integrase binds to the specific sequences of the long terminal repeat region (LTR) of the proviral DNA to form a stable complex, then the endonucleotides of 3′ end of nucleoside is processed, and the GT dinucleotide of the sequence . . . […] Thus, the activity of the integrase inhibitor is embodied in inhibiting the excision of the 3′end of the viral DNA or the strand transfer, and is represented by a half-inhibitory concentration IC50.
In vitro integrase test, 30 synthetic oligonucleotides are used as donor substrates, 20 synthetic oligonucleotides are used as target substrates. Purified HIV-1 integrase is added to donor substrates coated 96-well plate, ELISA reaction is performed, the product of the strand transfer of target DNA is detected, color development is conducted by biotin-labeled alkaline phosphatase system, and the microplate reader is used to measure the OD value.
First, inhibitors of the enzyme may be screened by adding a sample to the reaction system. Before use, the sample is prepared with DMSO to an appropriate concentration, and then is diluted 5 times at 4 dilutions. The sample after dilution is added into the donor substrate coated 96-well plate, and then added to the reaction Buffer containing the genetically engineered target enzyme and the biotin-target substrate, incubated under optimal reaction conditions, and colored by biotin-labeled alkaline phosphatase system, and the OD value for absorbance value at 405 nm is measured.
30 synthetic oligonucleotides are used as donor substrates, 20 synthetic oligonucleotides are used as target substrates, purified HIV-1 integrase is added to donor substrates coated 96-well plate, ELISA reaction is performed, the product of the strand transfer of target DNA is detected, color development is conducted by biotin-labeled alkaline phosphatase system, and the OD value is measured by a microplate reader. The addition of samples to the reaction system can be used to screen inhibitors for the enzyme.
1. HIV-1 IN: it is extracted and saved by Chinese National New Drug Screening Center and Institute of Pharmaceutical Biotechnology under Chinese Academy of Medical Sciences.
2. Sample Treatment: 10 samples A1-A10 dissolved into DMSO prior to use are prepared into suitable concentrations, and then diluted 5 times at 4 dilutions. Donor substrate and target substrate are from Shanghai Biochemical Synthesis.
3. Method for Test: the samples after dilution are added into the donor substrate coated 96-well plate, then added to the reaction Buffer containing the genetically engineered target enzyme and the biotin-target substrate, incubated under optimal reaction conditions, and colored by biotin-labeled alkaline phosphatase system, and the OD value for absorbance value at 405 nm is measured.
For orientation: In an ELISA, binding on a coated surface is turned into a signal by an enzyme label.

The next series concerns HSV-II, SAV strain. In words: Inhibition of cytopathic effects of Vero cells caused by herpes virus type II. It is filed as cell-based. The following applies: Human alphaherpesvirus 2; Vero cells, CPE 48 hours, Reed-Muench; read-out: IC50 Against HSV-II. The source says: Vero cells (kidney cells of African green monkey) are used as viral hosts to test the inhibition degree of the samples to the cytopathic effects of Vero cells caused by herpes virus type I and type II.
Vero cells (kidney cells of African green monkey) are used as viral hosts to test the inhibition degree of the samples to cytopathic effects of the Vero cell caused by herpes virus type I and type II.
1. Virus strains: HSV-I, VR733 strain, and HSV-II, SAV strain, which both are provided by ATCC.
2. Sample treatment: the sample is dissolved in DMSO at an appropriate concentration before use, and diluted with the culture medium 3 times at a total of 8 dilutions for test.
3. Positive control drug: acyclovir (ACV) produced by the Hubei Ke Yi pharmaceutical factory.
In general terms: Damage to the host cells serves as the signal in cytopathic effect assays.

What is called IC50 is the point on the concentration scale where inhibition reaches its midpoint.

In the case of `O=C(c1cc(O)c(O)cc1O)c1ccc(O)c(O)c1O`, the “TC50 half toxic concentration” value with Vero cells was 86.23 µg/mL (≈ 310 µM). In the series with HPV16/18, the “HPV16/18 virus detection, in words” value is “can no longer be detected” and the HPV16/18 is on record as 0 copy/ml. Also, in the series on HPV 6/11 Virus, the “HPV 6/11 virus detection, in words” value is listed as “can no longer be detected” and the “HPV 6/11 Virus” value worked out at 0 copy/ml. Half-maximal inhibition against HIV-1 integrase (IC50) was put at 37.8 µM.

As to `O=C(c1ccc(O)c(O)c1O)c1ccc(O)c(O)c1O` [2,3,4,2′,3′,4′-hexahydroxybenzophenone], the “TC50 half toxic concentration” value with Vero cells came to 12.35 µg/mL (≈ 44.4 µM). Further, the half-maximal inhibitory concentration (IC50) in the series on HSV-II, SAV strain stood at 10.8 µg/mL (≈ 39 µM). Moreover, in the series with HPV16/18, the “HPV16/18 virus detection, in words” value is “can no longer be detected” and the HPV16/18 was found to be 0 copy/ml. Also, in the series with HPV 6/11 Virus, the “HPV 6/11 virus detection, in words” value was “can no longer be detected” and the “HPV 6/11 Virus” value is recorded as 0 copy/ml. Besides, the IC50 at HIV-1 integrase is 32.8 µM.

On to `O=C(c1ccccc1)c1ccc(O)c(O)c1O` [2,3,4-trihydroxybenzophenone], for which, in the series with Vero cells, the “TC50 half toxic concentration” value was determined as 53.42 µg/mL (≈ 232 µM). In addition, the half-maximal inhibitory concentration (IC50) with HSV-II, SAV strain is 28.7 µg/mL (≈ 125 µM). Besides, in the series with HPV16/18, the “HPV16/18 virus detection, in words” value was “can no longer be detected” and the HPV16/18 was 0 copy/ml. For the same compound, in the series with HPV 6/11 Virus, the “HPV 6/11 virus detection, in words” value is reported as “can no longer be detected” and the “HPV 6/11 Virus” value is recorded as 0 copy/ml. On HIV-1 integrase, the IC50 is 52.6 µM.

In the case of `O=C(c1ccc(O)cc1O)c1ccc(O)cc1O` [2,4,2′,4′-tetrahydroxybenzophenone], the “TC50 half toxic concentration” value with Vero cells worked out at 111.11 µg/mL (≈ 451 µM). For the same compound, in the series on HSV-II, SAV strain, the 50% inhibitory concentration (IC50) worked out at 28.7 µg/mL (≈ 117 µM). In addition, in the series with HPV16/18, the “HPV16/18 virus detection, in words” value is given as “can no longer be detected” and the HPV16/18 worked out at 0 copy/ml. Besides, in the series with HPV 6/11 Virus, the “HPV 6/11 virus detection, in words” value was “can no longer be detected” and the “HPV 6/11 Virus” value is 0 copy/ml. The same compound showed an IC50 at HIV-1 integrase of 45.6 µM.
